The record followed here is ChEMBL document CHEMBL4732202, “Identification and Profiling of a Novel Diazaspiro[3.4]octane Chemical Series Active against Multiple Stages of the Human Malaria Parasite Plasmodium falciparum and Optimization Efforts” (J Med Chem, 2021).

Each structure is given as a SMILES string. Bounds are passed on as bounds.

By half-life is commonly meant the time in which the quantity being followed falls by half. Higher therefore signals slow loss. One may read the clearance as a measure of how efficiently the substance is removed, as volume per time. Higher therefore signals efficient removal. A word on the bioavailability: it is dose-corrected exposure relative to a reference, in per cent. By AUC(0-inf) is commonly meant the area under the concentration-time curve extrapolated to infinity. Read a high AUC(0-inf) as more exposure. The term Vd denotes a proportionality between amount in the body and measured concentration, not a real space. A higher Vd goes with wide distribution into tissue.

Data set [1] is described as follows: Half life in rat liver microsomes at 0.1 uM in presence or absence of NADPH by LC-MS/MS analysis. The data set is classed as ADME, Microsome. (Liver microsomes are vesicles of endoplasmic reticulum, rich in cytochrome P450 enzymes.)
The nature of data set [2]: Half life in mouse liver microsomes at 0.1 uM in presence or absence of NADPH by LC-MS/MS analysis. The data set is classed as ADME, Microsome.
Data set [3] in a line: Half life in human liver microsomes at 0.1 uM in presence or absence of NADPH by LC-MS/MS analysis. It counts as ADME, Microsome.
Data set [4] in a line: Unbound AUC in Balb/c mouse at 20 mg/kg, po measured upto 24 hrs by LC-MS/MS analysis. The note with it: in vivo. The data set is classed as ADME, organism-based.
The nature of data set [5]: Blood clearance in Balb/c mouse at 3 mg/kg, iv measured upto 24 hrs by LC-MS/MS analysis. The data set is classed as ADME, organism-based. The note with it: whole blood.
Data set [6] in a line: Unbound average drug concentration in Balb/c mouse at 20 mg/kg, po measured upto 24 hrs by LC-MS/MS analysis. The note with it: in vivo. The data set is classed as ADME, organism-based.
Data set [7] in a line: Oral bioavailability in Balb/c mouse at 10 mg/kg measured upto 24 hrs by LC-MS/MS analysis. It counts as ADME, organism-based. Conditions: in vivo.
A short description of data set [8]: Intrinsic clearance in Balb/c mouse at 3 mg/kg, iv measured upto 24 hrs by LC-MS/MS analysis. The data set is classed as ADME, organism-based. Conditions: in vivo.
Data set [9] is described as follows: AUC (0 to infinity) in Balb/c mouse at 3 mg/kg, iv measured upto 24 hrs by LC-MS/MS analysis. It counts as ADME, organism-based. Set-up: route intravenous, dose 3 mg/kg, time <=24. The note with it: in vivo.
Data set [10] can be described thus: Half life in Balb/c mouse at 3 mg/kg, iv measured upto 24 hrs by LC-MS/MS analysis. Conditions: in vivo. It counts as ADME, organism-based.
A short description of data set [11]: Volume of distribution in Balb/c mouse at 3 mg/kg, iv measured upto 24 hrs by LC-MS/MS analysis. The data set is classed as ADME, organism-based. The note with it: in vivo.

For the compound `O=C([C@H](O)c1ccc(O)cc1)N1CC(CNc2ccc(F)cc2)C2(C1)CN(c1cc(F)cc(F)c1)C2` (mixture of isomers), the values for the half-life at 0.1 µM in data set [1], in data set [2] and in data set [3] were 7.9 min, 4.4 min and 6.8 min, respectively.

On to `O=C(Cc1cc(F)c(O)c(F)c1)N1CC(CNc2ccc(F)cc2)C2(C1)CN(c1ccc(F)cc1)C2` (racemic), for which the half-life at 0.1 µM in data set [1] worked out at 40 min; in data set [2] it was 42 min; in data set [3] it was 46 min.

With `N#Cc1cc(CC(=O)N2CC(CNc3ccc(F)cc3)C3(C2)CN(c2cc(F)cc(F)c2)C3)ccc1O` (racemic), the half-life at 0.1 µM in data set [1] is 31 min; in data set [2], 70 min; in data set [3], 27 min.

Take `O=C(N1CC(CNc2ccc(F)cc2)C2(C1)CN(c1cc(F)cc(F)c1)C2)C(F)(F)c1ccc(O)c(C(F)(F)F)c1` (racemic): the half-life at 0.1 µM in data set [1] worked out at 7 min; in data set [2] it was 16 min; in data set [3] it was 18 min.

Consider `C[C@H](C(=O)N1CC(CNc2ccc(F)cc2)C2(C1)CN(c1cc(F)cc(F)c1)C2)c1ccc(O)cc1` (mixture of isomers), for which the results for the half-life at 0.1 µM in data set [1], in data set [2] and in data set [3] were 4 min, 10 min and 6 min, respectively.

Regarding `O=C(Cc1ccc(O)c(Cl)c1)N1CC(CNc2ccc(F)cc2)C2(C1)CN(c1ccc(F)cc1)C2` (racemic), the half-life at 0.1 µM in data set [1] turned out to be 25 min; in data set [2] it was 16 min; in data set [3] it was 22 min.

As for `O=C(Cc1ccnc(O)c1)N1CC(CNc2ccc(F)cc2)C2(C1)CN(c1cc(F)cc(F)c1)C2` (racemic), the half-life at 0.1 µM amounted to 20 min in data set [1], 17 min in data set [2] and 12 min in data set [3].

Consider `O=C(Cc1ccc(O)cn1)N1CC(CNc2ccc(F)cc2)C2(C1)CN(c1cc(F)cc(F)c1)C2` (racemic), for which the half-life at 0.1 µM in data set [1] was found to be 12 min; in data set [2], 11 min; in data set [3], 12 min.

As to `N[C@H](Cc1ccc(O)cc1)C(=O)N1CC(CNc2ccc(F)cc2)C2(C1)CN(c1cc(F)cc(F)c1)C2` (mixture of isomers), the half-life at 0.1 µM in [1] was found to be 24 min; in data set [2], 20 min; in data set [3] it was 34 min.

With `C[C@@H](C(=O)N1CC(CNc2ccc(F)cc2)C2(C1)CN(c1cc(F)cc(F)c1)C2)c1ccc(O)cc1` (mixture of isomers), the half-life at 0.1 µM in [1] turned out to be 6 min; in data set [2] it was 7 min; in data set [3], 6 min.

`O=C(CN1CCC(O)CC1)N1CC(CNc2ccc(F)cc2)C2(C1)CN(c1ccc(F)cc1)C2` (racemic): the half-life at 0.1 µM in [1], in [2] and in data set [3] was 150 min throughout.

Consider `N[C@@H](C(=O)N1CC(CNc2ccc(F)cc2)C2(C1)CN(c1cc(F)cc(F)c1)C2)c1ccc(O)cc1` (mixture of isomers), for which the half-life at 0.1 µM in data set [1] came out at 44 min; in data set [2] it was 48 min; in [3], 25 min.

`O=C(Cc1cc[n+]([O-])cc1)N1CC(CNc2ccc(F)cc2)C2(C1)CN(c1cc(F)cc(F)c1)C2` (racemic): the half-life at 0.1 µM in [1], in data set [2] and in data set [3] was 150 min each time.

In turn, `CC1(C)c2nc(-c3ccc(F)cc3)c(Nc3ccc(F)cc3)n2CCN1C(=O)CN` [GANAPLACIDE] had a fAUC in data set [4] of 65.4 µmol·min/L. Further, the clearance in data set [5] was found to be 37.8 mL/min/kg. For the same compound, the “f(Cave)” value in [6] turned out to be 45 nM. This compound also showed a bioavailability in data set [7] of 74%. This compound showed a CL in data set [8] of 548 mL/min/kg.

For `CS(=O)(=O)c1ccc(-c2cnc(N)c(-c3ccc(C(F)(F)F)nc3)c2)cc1` [MMV-048], the fAUC in data set [4] was 4452 µmol·min/L. This compound also showed a clearance in [5] of 3 mL/min/kg. In addition, in data set [6], the “f(Cave)” value is recorded as 3092 nM. Further, in data set [7], the bioavailability is above 100%. The compound further returned a CL in [8] of 19 mL/min/kg.

For `N[C@H](C(=O)N1CC(CNc2ccc(F)cc2)C2(C1)CN(c1cc(F)cc(F)c1)C2)c1ccc(O)cc1` (mixture of isomers; form 1), the half-life at 0.1 µM in [1], in data set [2] and in data set [3] was 150 min throughout. In [9], this compound had an AUC(0-inf) of 3 µM·h. This compound also yielded a fAUC in data set [4] of 3 µmol·min/L. The half-life in [10] is 480 min. Moreover, in data set [5], the clearance was found to be 33.7 mL/min/kg. In addition, in data set [6], the “f(Cave)” value worked out at 2 nM. Further, the Vd in data set [11] was 23.5 L/kg. The bioavailability in [7] was below 1%. This compound registered a CL in data set [8] of 2155 mL/min/kg.

In the case of `Nc1ccc(C[C@@H](N)C(=O)N2CC(CNc3ccc(F)cc3)C3(C2)CN(c2cc(F)cc(F)c2)C3)cc1` (mixture of isomers), the half-life at 0.1 µM in data set [1], in [2] and in data set [3] was 150 min in each case. Further, the AUC(0-inf) in data set [9] is 2.48 µM·h. This compound had a fAUC in data set [4] of 2 µmol·min/L. For the same compound, the half-life in data set [10] is 342 min. Moreover, in data set [5], the clearance came out at 40.6 mL/min/kg. Further, in [6], the Cave is 1 nM. The volume of distribution (Vd) in [11] was determined as 20.7 L/kg. This compound also came in with a bioavailability in [7] of 8%. This compound also registered a CL in data set [8] of 2959 mL/min/kg.

As to `O=C(Cc1ccc(O)nc1)N1CC(CNc2ccc(F)cc2)C2(C1)CN(c1cc(F)cc(F)c1)C2` (racemic), the half-life at 0.1 µM is 52 min in [1], 17 min in [2] and 21 min in data set [3].

For the compound `O=C(Cc1ccc(O)c(C(F)(F)F)c1)N1CC(CNc2ccc(F)cc2)C2(C1)CN(c1cc(F)cc(F)c1)C2` (racemic), the figures for the half-life at 0.1 µM in data set [1], in data set [2] and in data set [3] were 16 min, 24 min and 15 min, respectively.

Regarding `NC(=O)c1cc(CC(=O)N2CC(CNc3ccc(F)cc3)C3(C2)CN(c2cc(F)cc(F)c2)C3)ccc1O` (racemic), the half-life at 0.1 µM in data set [1] stood at 8 min; in [2] it was 21 min; in data set [3], 11 min.

Regarding `O=C([C@@H](O)c1ccc(O)cc1)N1CC(CNc2ccc(F)cc2)C2(C1)CN(c1cc(F)cc(F)c1)C2` (mixture of isomers), the half-life at 0.1 µM in [1] was 6.7 min; in [2], 11 min; in data set [3] it was 9 min.

`O=C(Cc1ccc(O)cc1)N1CC(CNc2ccccc2)C2(C1)CN(c1ccc(F)cc1)C2` (stereo not drawn) gave an area under the curve AUC(0-inf) in data set [9] of 1.82 µM·h. In [4], this compound displayed a fAUC of 3 µmol·min/L. The half-life in data set [10] is 240 min. The compound further showed a clearance in data set [5] of 63 mL/min/kg. The “f(Cave)” value in [6] was 2 nM. In data set [11], this compound came in with a Vd of 22 L/kg. The bioavailability in data set [7] was 10%. Also, the CL in [8] was determined as 5042 mL/min/kg.

On to `O=C(Cc1ccc(O)c(F)c1)N1CC(CNc2ccc(F)cc2)C2(C1)CN(c1ccc(F)cc1)C2` (racemic), for which the results for the half-life at 0.1 µM in [1], in data set [2] and in [3] were 14 min, 13 min and 17 min, respectively.

For `O=C(Cc1ncc(O)cn1)N1CC(CNc2ccc(F)cc2)C2(C1)CN(c1cc(F)cc(F)c1)C2` (racemic), the half-life at 0.1 µM is 68 min in data set [1], 67 min in data set [2] and 64 min in data set [3].

In the case of `O=C(Cc1ccc(C(F)F)cc1)N1CC(CNc2ccc(F)cc2)C2(C1)CN(c1ccc(F)cc1)C2` (racemic), the results for the half-life at 0.1 µM in [1], in [2] and in data set [3] were 7.6 min, 6.6 min and 7.6 min, respectively.

Turning to `O=C(N1CC(CNc2ccc(F)cc2)C2(C1)CN(c1cc(F)cc(F)c1)C2)C(F)(F)c1ccc(O)cc1` (racemic), the half-life at 0.1 µM in data set [1] was 11 min; in data set [2] it was 12 min; in data set [3] it was 23 min.
